# Structures can show the parent of a compound that is named as a salt.
# Target: TrkA (Homo sapiens (Human), UniProt P04629)
# Test: TrkA Omnia Assay
# Type: biochemical
# Settings: averaged IC50; 20 nM enzyme, 500 μM ATP, 10 μM peptide substrate
# Procedure, shortened: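 Continuous fluorescent kinase read-out (ex 360 nm, em 485 nm) over 70 min, with initial rates fitted to 4- or 5-parameter logistic curves for IC50. Final conditions: 500 μM ATP, 10 μM Omnia Tyr Peptide #4, 20 nM TrkA, MOPS pH 7.5 buffer with MgCl2 and Triton X-100; enzyme and compound preincubated 10 min at ambient temperature.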
# Sequence of TrkA (P04629 33-796): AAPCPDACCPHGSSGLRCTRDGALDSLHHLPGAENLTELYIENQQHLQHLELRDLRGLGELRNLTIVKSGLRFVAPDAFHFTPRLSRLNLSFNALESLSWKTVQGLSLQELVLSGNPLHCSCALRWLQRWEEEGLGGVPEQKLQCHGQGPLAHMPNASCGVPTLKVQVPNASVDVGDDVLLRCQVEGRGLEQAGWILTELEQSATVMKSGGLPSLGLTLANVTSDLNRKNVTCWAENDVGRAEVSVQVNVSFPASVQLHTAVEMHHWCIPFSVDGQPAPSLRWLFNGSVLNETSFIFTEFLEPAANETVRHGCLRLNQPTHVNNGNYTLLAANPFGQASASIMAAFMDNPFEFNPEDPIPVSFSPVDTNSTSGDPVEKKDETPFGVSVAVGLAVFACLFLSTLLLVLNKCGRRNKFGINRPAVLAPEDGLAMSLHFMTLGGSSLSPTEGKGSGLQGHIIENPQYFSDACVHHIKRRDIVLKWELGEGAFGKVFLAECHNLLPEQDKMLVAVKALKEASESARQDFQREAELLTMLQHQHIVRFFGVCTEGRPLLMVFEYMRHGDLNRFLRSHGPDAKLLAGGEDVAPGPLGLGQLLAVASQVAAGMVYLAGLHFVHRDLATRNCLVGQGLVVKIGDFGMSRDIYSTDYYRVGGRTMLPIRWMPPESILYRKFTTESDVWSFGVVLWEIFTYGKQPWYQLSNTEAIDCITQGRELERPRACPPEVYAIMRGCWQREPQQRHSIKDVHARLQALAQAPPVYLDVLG
row,IC50,SMILES
1,< 100 nM,"CCOc1nn(-c2ccccc2)c(NC(=O)N[C@@H]2CN(CCOC)C[C@H]2c2cc(F)cc(F)c2)c1C [Example 138, 1-((3S,4R)-4-(3,5-difluorophenyl)-1-(2-methoxyethyl)pyrrolidin-3-yl)-3-(3-ethoxy-4-methyl-1-phenyl-1H-pyrazol-5-yl)urea]"
2,< 100 nM,CCOc1nn(-c2ccccc2)c(NC(=O)N[C@@H]2CN(CCOC)C[C@H]2c2ccccc2)c1C [Example 139]
3,< 100 nM,"COCCN1C[C@@H](NC(=O)Nc2c(C)c(OC)nn2-c2ccccc2)[C@H](c2ccc(F)c(F)c2)C1 [Example 140, 1-((3S,4R)-4-(3,4-difluorophenyl)-1-(2-methoxyethyl)pyrrolidin-3-yl)-3-(3-methoxy-4-methyl-1-phenyl-1H-pyrazol-5-yl)urea]"
4,< 100 nM,"COCCN1C[C@@H](NC(=O)Nc2c(C)c(OCC#N)nn2-c2ccccc2)[C@H](c2ccc(F)c(F)c2)C1 [Example 141, 1-(3-(cyanomethoxy)-4-methyl-1-phenyl-1H-pyrazol-5-yl)-3-((3S,4R)-4-(3,4-difluorophenyl)-1-(2-methoxyethyl)pyrrolidin-3-yl)urea]"
5,< 100 nM,"COCCN1C[C@@H](NC(=O)Nc2c(C)c(OCc3ccc(OC)cc3)nn2-c2ccccc2)[C@H](c2ccc(F)c(F)c2)C1 [Example 142, 1-((3S,4R)-4-(3,4-difluoro-phenyl)-1-(2-methoxyethyl)pyrrolidin-3-yl)-3-(3-(4-methoxybenzyloxy)-4-methyl-1-phenyl-1H-pyrazol-5-yl)urea]"
6,< 100 nM,"COCCN1C[C@@H](NC(=O)Nc2c(C)c(OC)nn2-c2ccccc2)[C@H](c2ccc(F)cc2)C1 [Example 143, 1-((3S,4R)-4-(4-fluorophenyl)-1-(2-methoxyethyl)pyrrolidin-3-yl)-3-(3-methoxy-4-methyl-1-phenyl-1H-pyrazol-5-yl)urea]"
7,< 100 nM,"COCCN1C[C@@H](NC(=O)Nc2c(C)c(OCCF)nn2-c2ccccc2)[C@H](c2ccc(F)c(F)c2)C1 [Example 144, 1-((3S,4R)-4-(3,4-difluorophenyl)-1-(2-methoxyethyl)pyrrolidin-3-yl)-3-(3-(2-fluoro-ethoxy)-4-methyl-1-phenyl-1H-pyrazol-5-yl)urea]"
8,< 100 nM,"COCCN1C[C@@H](NC(=O)Nc2c(C)c(OCC(C)(C)O)nn2-c2ccccc2)[C@H](c2ccc(F)c(F)c2)C1 [Example 145, 1-((3S,4R)-4-(3,4-difluorophenyl)-1-(2-methoxyethyl)pyrrolidin-3-yl)-3-(3-(2-hydroxy-2-methylpropoxy)-4-methyl-1-phenyl-1H-pyrazol-5-yl)urea]"
9,< 100 nM,"CCOc1cc(NC(=O)N[C@@H]2CN(CCOC)C[C@H]2c2ccc(F)c(F)c2)n(-c2ccccc2)n1 [Example 146, 1-((3S,4R)-4-(3,4-difluorophenyl)-1-(2-methoxyethyl)pyrrolidin-3-yl)-3-(3-ethoxy-1-phenyl-1H-pyrazol-5-yl)urea]"
10,< 100 nM,"CCOc1nn(-c2ccccc2)c(NC(=O)N[C@@H]2CN(CCOC)C[C@H]2c2ccc(F)cc2)c1C [Example 147, 1-(3-ethoxy-4-methyl-1-phenyl-1H-pyrazol-5-yl)-3-((3S,4R)-4-(4-fluorophenyl)-1-(2-methoxyethyl)pyrrolidin-3-yl)urea]"
11,< 100 nM,"CCOc1nn(-c2ccccc2)c(NC(=O)N[C@@H]2CN(CCOC)C[C@H]2c2cccc(F)c2)c1C [Example 148, 1-(3-ethoxy-4-methyl-1-phenyl-1H-pyrazol-5-yl)-3-((3S,4R)-4-(3-fluorophenyl)-1-(2-methoxyethyl)pyrrolidin-3-yl)urea]"
12,< 100 nM,"COCCN1C[C@@H](NC(=O)Nc2c(C)c(OCCO)nn2-c2ccccc2)[C@H](c2cc(F)cc(F)c2)C1 [Example 149, 1-((3S,4R)-4-(3,5-difluorophenyl)-1-(2-methoxyethyl)pyrrolidin-3-yl)-3-(3-(2-hydroxy-ethoxy)-4-methyl-1-phenyl-1H-pyrazol-5-yl)urea]"
13,< 100 nM,"COCCN1C[C@@H](NC(=O)Nc2c3c(nn2C2CCCCC2)CCC3)[C@H](c2ccc(F)c(F)c2)C1 [Example 150, 1-(2-cyclohexyl-2,4,5,6-tetrahydrocyclopenta [c]pyrazol-3-yl)-3-((3S,4R)-4-(3,4-difluorophenyl)-1-(2-methoxyethyl)pyrrolidin-3-yl)urea]"
14,< 100 nM,"COCCN1C[C@@H](NC(=O)Nc2c3c(nn2-c2ccncc2)CCC3)[C@H](c2ccccc2)C1 [Example 151, 1-((3S,4R)-1-(2-methoxyethyl)-4-phenylpyrrolidin-3-yl)-3-(2-(pyridin-4-yl)-2,4,5,6-tetrahydrocyclopenta[c]pyrazol-3-yl)urea]"
15,< 100 nM,"COCCN1C[C@@H](NC(=O)Nc2cc(-c3cnc(C)cn3)nn2C)[C@H](c2ccc(F)c(F)c2)C1 [Example 152, 1-((3S,4R)-4-(3,4-difluorophenyl)-1-(2-methoxyethyl)pyrrolidin-3-yl)-3-(1-methyl-3-(5-methylpyrazin-2-yl)-1H-pyrazol-5-yl)urea]"
16,100 to 1000 nM,"COCCN1C[C@@H](NC(=O)Nc2c(C)c(-c3cnc(C)cn3)nn2C)[C@H](c2ccc(F)c(F)c2)C1 [Example 153, 1-((3S,4R)-4-(3,4-difluorophenyl)-1-(2-methoxyethyl)pyrrolidin-3-yl)-3-(1,4-dimethyl-3-(5-methylpyrazin-2-yl)-1H-pyrazol-5-yl) urea]"
17,1000 to 10000 nM,"CCOC(=O)c1cnn(-c2ccccc2)c1NC(=O)N[C@@H]1CN(CCOC)C[C@H]1c1ccc(F)c(F)c1 [Example 154, ethyl 5-(3-((3S,4R)-4-(3,4-difluorophenyl)-1-(2-methoxyethyl)pyrrolidin-3-yl)ureido)-1-phenyl-1H-pyrazole-4-carboxylate]"
18,< 100 nM,"COCCN1C[C@@H](NC(=O)Nc2cc(-c3cnccn3)nn2C)[C@H](c2ccc(F)c(F)c2)C1 [Example 155, 1-((3S,4R)-4-(3,4-difluorophenyl)-1-(2-methoxyethyl)pyrrolidin-3-yl)-3-(1-methyl-3-(pyrazin-2-yl)-1H-pyrazol-5-yl)urea]"
19,< 100 nM,"COCCN1C[C@@H](NC(=O)Nc2c(-c3ccccc3)c(OC)nn2C)[C@H](c2ccc(F)c(F)c2)C1 [Example 156, 1-((3S,4R)-4-(3,4-difluorophenyl)-1-(2-methoxyethyl)pyrrolidin-3-yl)-3-(3-methoxy-1-methyl-4-phenyl-1H-pyrazol-5-yl)urea]"
20,< 100 nM,"CCOc1nn(C)c(NC(=O)N[C@@H]2CN(CCOC)C[C@H]2c2ccc(F)c(F)c2)c1-c1ccccc1 [Example 157, 1-((3S,4R)-4-(3,4-difluorophenyl)-1-(2-methoxyethyl)pyrrolidin-3-yl)-3-(3-ethoxy-1-methyl-4-phenyl-1H-pyrazol-5-yl)urea]"
21,1000 to 10000 nM,"COCCN1C[C@@H](NC(=O)Nc2c3c(nn2-c2ccccc2)CNC3)[C@H](c2ccccc2)C1 [Example 158, 1-((3S,4R)-1-(2-methoxyethyl)-4-phenylpyrrolidin-3-yl)-3-(2-phenyl-2,4,5,6-tetrahydropyrrolo[3,4-c]pyrazol-3-yl)urea dihydrochloride]"
22,100 to 1000 nM,"COCCN1C[C@@H](NC(=O)Nc2c3c(nn2-c2ccccc2)CN(C(C)=O)C3)[C@H](c2ccccc2)C1 [Example 159, 1-(5-acetyl-2-phenyl-2,4,5,6-tetrahydropyrrolo[3,4-c]pyrazol-3-yl)-3-((3S,4R)-1-(2-methoxyethyl)-4-phenylpyrrolidin-3-yl)urea]"
23,100 to 1000 nM,"COCCN1C[C@@H](NC(=O)Nc2c(CO)c(COC)nn2-c2ccccc2)[C@H](c2ccc(F)c(F)c2)C1 [Example 160, 1-((3S,4R)-4-(3,4-difluorophenyl)-1-(2-methoxyethyl)pyrrolidin-3-yl)-3-(4-(hydroxymethyl)-3-(methoxymethyl)-1-phenyl-1H-pyrazol-5-yl)urea]"
24,< 100 nM,"COCCN1C[C@@H](NC(=O)Nc2cc(-c3ccc(C(=O)O)cc3)nn2C)[C@H](c2ccc(F)c(F)c2)C1 [Example 161, 4-(5-(3-((3S,4R)-4-(3,4-difluorophenyl)-1-(2-methoxyethyl)pyrrolidin-3-yl)ureido)-1-methyl-1H-pyrazol-3-yl)benzoic acid]"
25,< 100 nM,"COCCN1C[C@@H](NC(=O)Nc2cc(-c3ccc(C(N)=O)cc3)nn2C)[C@H](c2ccc(F)c(F)c2)C1 [Example 162, 4-(5-(3-((3S,4R)-4-(3,4-difluorophenyl)-1-(2-methoxyethyl)pyrrolidin-3-yl)ureido)-1-methyl-1H-pyrazol-3-yl)benzamide]"
26,< 100 nM,"CNC(=O)c1ccc(-c2cc(NC(=O)N[C@@H]3CN(CCOC)C[C@H]3c3ccc(F)c(F)c3)n(C)n2)cc1 [Example 163, 4-(5-(3-((3S,4R)-4-(3,4-difluorophenyl)-1-(2-methoxyethyl)pyrrolidin-3-yl)ureido)-1-methyl-1H-pyrazol-3-yl)-N-methylbenzamide]"
27,< 100 nM,"COCCN1C[C@@H](NC(=O)Nc2cc(-c3ccc(CO)cc3)nn2C)[C@H](c2ccc(F)c(F)c2)C1 [Example 165, 1-((3S,4R)-4-(3,4-difluorophenyl)-1-(2-methoxyethyl)pyrrolidin-3-yl)-3-(3-(4-(hydroxymethyl)phenyl)-1-methyl-1H-pyrazol-5-yl)urea]"
28,< 100 nM,"COCCN1C[C@@H](NC(=O)Nc2cc(-c3ccc(S(C)(=O)=O)cc3)nn2C)[C@H](c2ccc(F)c(F)c2)C1 [Example 166, 1-((3S,4R)-4-(3,4-difluorophenyl)-1-(2-methoxyethyl)pyrrolidin-3-yl)-3-(1-methyl-3-(4-(methylsulfonyl)phenyl)-1H-pyrazol-5-yl)urea]"
29,< 100 nM,"COCCN1C[C@@H](NC(=O)Nc2c(F)c(C)nn2-c2ccccc2)[C@H](c2ccc(F)c(F)c2)C1 [Example 167, 1-((3S,4R)-4-(3,4-difluorophenyl)-1-(2-methoxyethyl)pyrrolidin-3-yl)-3-(4-fluoro-3-methyl-1-phenyl-1H-pyrazol-5-yl)urea]"
30,< 100 nM,"COCCN1C[C@@H](NC(=O)Nc2c(F)c(-c3ccccc3)nn2C)[C@H](c2ccc(F)c(F)c2)C1 [Example 168, 1-((3S,4R)-4-(3,4-difluorophenyl)-1-(2-methoxyethyl)pyrrolidin-3-yl)-3-(4-fluoro-1-methyl-3-phenyl-1H-pyrazol-5-yl)urea]"
